Assay results published in BindingDB's records for doi:10.7270/Q2X34VWJ (Nmmlsc, 2009).

molecular target: Ras-related protein Rab-7a (Canis lupus familiaris, UniProt P18067); test: Rab7 GTP binding inhibitors, further analogs, SAR follow-up, biochemical, additional analogs, wildtype, multiplex bead flow cytometry (AID 2036); details: not given
Sequence (P18067 whole entry): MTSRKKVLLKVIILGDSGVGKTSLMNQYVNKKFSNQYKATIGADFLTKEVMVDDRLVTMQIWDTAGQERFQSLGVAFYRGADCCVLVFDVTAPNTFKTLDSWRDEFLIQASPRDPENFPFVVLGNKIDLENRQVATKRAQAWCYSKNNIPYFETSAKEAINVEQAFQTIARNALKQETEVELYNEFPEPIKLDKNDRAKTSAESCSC

SMILES	EC50 [µM]
O=C1Nc2c(Br)cccc2C1=C1Nc2ccccc2C1=O	30
O=C1NC(=O)/C(=C2/C(=O)Nc3ccccc32)N1	30
O=C1Nc2c(Cl)cccc2C1=C1Nc2ccccc2C1=O	0.024
O=C1Nc2c(F)cccc2C1=C1Nc2ccccc2C1=O	23.8
O=C1Nc2ccc(Br)cc2C1=C1Nc2ccccc2C1=O	30
O=C1Nc2ccccc2/C1=C1/Nc2ccccc2C1=O [2-[(3Z)-2-oxo-2,3-dihydro-1H-indol-3-ylidene]-2,3-dihydro-1H-indol-3-one]	30

Now from value to compound:

EC50 [µM]	SMILES
30	O=C1N=c2ccccc2=C1c1[nH]c2ccccc2c1NO [3-[3-(hydroxyamino)-1H-indol-2-yl]-2-indolone]
30	C[C@@H](C(=O)O)c1cccc(Oc2ccccc2)c1 [calcium;2-(3-phenoxyphenyl)propanoic acid;hydrate]
13.4	O=C1NC(=S)N/C1=C1\C(=O)Nc2ccccc21 [(3Z)-3-(5-oxo-2-sulfanylideneimidazolidin-4-ylidene)-1H-indol-2-one]
30	O=C1N=c2c(F)cccc2=C1c1[nH]c2ccccc2c1NO [7-fluoro-3-[3-(hydroxyamino)-1H-indol-2-yl]-2-indolone]
30	O=C1N=c2ccc(Br)cc2=C1c1[nH]c2ccccc2c1NO [5-bromanyl-3-[3-(oxidanylamino)-1H-indol-2-yl]indol-2-one]
30	O=C1N=c2c(Br)cccc2=C1c1[nH]c2ccccc2c1NO [7-bromanyl-3-[3-(oxidanylamino)-1H-indol-2-yl]indol-2-one]
30	O=C1N=c2c(Cl)cccc2=C1c1[nH]c2ccccc2c1NO [7-chloro-3-[3-(hydroxyamino)-1H-indol-2-yl]-2-indolone]

same assay, conditions: inactive by the depositor's call

SMILES	EC50 [µM]
CCCCS(=O)(=O)n1c(N)c(C#N)c(-c2cc(OC)c(OC)c(OC)c2)c1C(=O)c1ccccc1 [2-amino-5-benzoyl-1-butylsulfonyl-4-(3,4,5-trimethoxyphenyl)-3-pyrrolecarbonitrile]	30
O=[N+]([O-])c1ccc(C#Cc2ccccc2)cc1	30
COc1ccc2cc(CC(=O)O)ccc2c1 [2-(6-methoxynaphthalen-2-yl)ethanoic acid]	30
CC(C(=O)O)c1cccc(C(=O)c2ccccc2)c1 (stereo not given) [2-(3-benzoylphenyl)propanoic acid]	30
O=C(C#Cc1ccccc1)c1ccc([N+](=O)[O-])cc1 [1-(4-nitrophenyl)-3-phenyl-2-propyn-1-one]	30
O=C(C#Cc1ccccc1)c1ccc(OC(F)(F)F)cc1	30
CC(=O)Oc1ccccc1C(=O)O [2-(acetyloxy)benzoic acid]	30
COc1ccc(S(=O)(=O)n2c(N)c(C#N)c(-c3ccccc3)c2C(=O)c2ccc(Br)cc2)cc1	30
O=C1Nc2cccc(Br)c2/C1=C1/Cc2ccccc2C1=O	30
COc1ccc(C(=O)C#Cc2ccccc2)cc1 [1-(4-methoxyphenyl)-3-phenyl-2-propyn-1-one]	30
COc1ccc(S(=O)(=O)n2c(N)c(C#N)c(-c3cncc(Br)c3)c2C(=O)c2ccccc2)cc1 [2-amino-5-benzoyl-4-(5-bromo-3-pyridinyl)-1-(4-methoxyphenyl)sulfonyl-3-pyrrolecarbonitrile]	8.24

Now from value to compound:

EC50 [µM]	SMILES
30	O=C(C#Cc1ccccc1)c1cccnc1 [3-phenyl-1-pyridin-3-ylprop-2-yn-1-one]
30	COc1ccc(S(=O)(=O)n2c(N)c(C#N)c(-c3cc(Br)c(OC)c(OC)c3)c2C(=O)c2ccccc2)cc1 [UNM-0000305782]
4.78	CC(C)Cc1ccc([C@H](C)C(=O)O)cc1 [(S)-2-(4-Isobutyl-phenyl)-propionic acid]
30	COC(=O)c1ccc(C(=O)C#Cc2ccccc2)cc1 [4-(1-oxo-3-phenylprop-2-ynyl)benzoic acid methyl ester]
30	O=C(C#Cc1ccccc1)c1ccc(F)cc1 [UNM-0000306059]
30	O=C(C#Cc1ccccc1)c1ccccc1 [UNM-0000306039]
30	N#Cc1ccc(C(=O)C#Cc2ccccc2)cc1 [4-(3-phenylprop-2-ynoyl)benzenecarbonitrile]
30	N#Cc1c(-c2ccc(Cl)cc2)c(C(=O)c2ccccc2)n(S(=O)(=O)c2ccc([N+](=O)[O-])cc2)c1N [UNM-0000305780]
33.2	COc1cc(-c2c(C#N)c(N)n(S(=O)(=O)c3c(C(C)C)cc(C(C)C)cc3C(C)C)c2C(=O)c2ccccc2)cc(OC)c1OC [2-azanyl-5-(phenylcarbonyl)-4-(3,4,5-trimethoxyphenyl)-1-[2,4,6-tri(propan-2-yl)phenyl]sulfonyl-pyrrole-3-carbonitrile]
30	CC1=C(CC(=O)O)c2cc(F)ccc2/C1=C/c1ccc([S+](C)[O-])cc1 (stereo not given) [UNM-0000306136]
30	O=C1Nc2c(Br)cccc2/C1=C1/Cc2ccccc2C1=O [(3E)-7-bromo-3-(3-oxo-1H-inden-2-ylidene)-1H-indol-2-one]
30	O=C(C#Cc1ccccc1)c1ccc(Cl)cc1 [UNM-0000306055]
41.2	CSc1ccc(/C=C2/C(C)=C(CC(=O)O)c3cc(F)ccc32)cc1 [{6-Fluoro-2-methyl-3-[1-(4-methylsulfanyl-phenyl)-meth-(E)-ylidene]-3H-inden-1-yl}-acetic acid]
30	O=C1Nc2ccccc2/C1=C1/Cc2ccccc2C1=O [UNM-0000305763]
30	O=C(C#Cc1ccccc1)c1ccccc1[N+](=O)[O-] [UNM-0000306038]
30	COc1ccc(-c2c(C#N)c(N)n(S(C)(=O)=O)c2C(=O)c2ccccc2)cc1Br [2-azanyl-4-(3-bromanyl-4-methoxy-phenyl)-1-methylsulfonyl-5-(phenylcarbonyl)pyrrole-3-carbonitrile]
